Legend:
Assay type in all cases: in vivo
AMARE = experiment: Example B1 herbicidal action post-emergence, AMARE; conditions: sprayed after 8 days cultivation, evaluated after 13 days, scores from 10 to 0 (10=total damage to plant; 0=no damage to plant)
Protocol: (§1) Seeds of a variety of test species were sown in standard soil in pots. After 8 days cultivation (post-emergence) under controlled conditions in a glasshouse (at 24/16° C., day/night; 14 hours light; 65% humidity), the plants were sprayed with an aqueous spray solution derived from the formulation of the technical active ingredient in acetone/water (50:50) solution containing 0.5% Tween 20 (polyoxyethelyene sorbitan monolaurate, CAS RN 9005-64-5). The test plants were then grown under controlled conditions in a glasshouse (at 24/16° C., day/night; 14 hours light; 65% humidity) and watered twice daily. After 13 days, the test was evaluated and the assessed scores, from 10 to 0, are tabulated in Table B1 (10=total damage to plant; 0=no damage to plant).

IPOHE = experiment: Example B1 herbicidal action post-emergence, IPOHE; conditions: sprayed after 8 days cultivation, evaluated after 13 days, scores from 10 to 0 (10=total damage to plant; 0=no damage to plant)
Protocol: as §1

ECHCG = experiment: Example B1 herbicidal action post-emergence, ECHCG; conditions: sprayed after 8 days cultivation, evaluated after 13 days, scores from 10 to 0 (10=total damage to plant; 0=no damage to plant)
Protocol: as §1

SOLNI = experiment: Example B1 herbicidal action post-emergence, SOLNI; conditions: sprayed after 8 days cultivation, evaluated after 13 days, scores from 10 to 0 (10=total damage to plant; 0=no damage to plant)
Protocol: as §1

SETFA = experiment: Example B1 herbicidal action post-emergence, SETFA; conditions: sprayed after 8 days cultivation, evaluated after 13 days, scores from 10 to 0 (10=total damage to plant; 0=no damage to plant)
Protocol: as §1

[1] = test system: crop and representative weed species; experiment: Example B2 herbicidal action post-emergence (Table B2); conditions: application post-emergence, rate 500 g/ha, evaluated after 15 days, score 10 to 0; for herbicidal damage score AMARE (10=total damage to plant; 0=no damage to plant): AMARE = Amaranthus retroflexus; for herbicidal damage score ECHCG (10=total damage to plant; 0=no damage to plant): ECHCG = Echinochloa crus-galli; for herbicidal damage score IPOHE (10=total damage to plant; 0=no damage to plant): IPOHE = Ipomea hederaceae; for herbicidal damage score SETFA (10=total damage to plant; 0=no damage to plant): SETFA = Setaria faberi
Protocol: Seeds of crop and representative weed species were sown in standard soil in pots. After cultivation for 14 days under controlled conditions in a glasshouse (at 22/16° C., day/night; 16 hours light; 65% humidity), the plants were sprayed. The spray solution was prepared by dissolving the technical active ingredient in acetone containing 10.56 wt % Emulsogen EL, 42.22 wt % N-methylpyrrolidone and 2.22 wt % DPG-monoethyl ether to give a 5% stock solution. This was then diluted with water containing 0.2% (v/v) of the adjuvant X-77 to give the desired treatment concentration.
The test plants were then grown on under controlled conditions in a glasshouse (at 22/16° C., day/night; 16 hours light; 65% humidity) and watered twice daily. After 15 days the test was evaluated and the assessed scores, from 10 to 0, are tabulated in Table B2 (10=total damage to plant; 0=no damage to plant).

SMILES	assessed score, application post-emergence, AMARE (AMARE; Rate 1000 g/ha)	assessed score, application post-emergence, IPOHE (IPOHE; Rate 1000 g/ha)	assessed score, application post-emergence, ECHCG (ECHCG; Rate 1000 g/ha)	assessed score, application post-emergence, SOLNI (SOLNI; Rate 1000 g/ha)	assessed score, application post-emergence, SETFA (SETFA; Rate 1000 g/ha)	herbicidal damage score AMARE (10=total damage to plant; 0=no damage to plant) [1]	herbicidal damage score ECHCG (10=total damage to plant; 0=no damage to plant) [1]	herbicidal damage score IPOHE (10=total damage to plant; 0=no damage to plant) [1]	herbicidal damage score SETFA (10=total damage to plant; 0=no damage to plant) [1]	assessed score, application post-emergence, AMARE (AMARE; Rate 250 g/ha)	assessed score, application post-emergence, IPOHE (IPOHE; Rate 250 g/ha)	assessed score, application post-emergence, ECHCG (ECHCG; Rate 250 g/ha)	assessed score, application post-emergence, SOLNI (SOLNI; Rate 250 g/ha)	assessed score, application post-emergence, SETFA (SETFA; Rate 250 g/ha)
CCc1cc(-c2ccc(Cl)cc2Cl)ccc1C1=C(O)c2nccnc2CS1(=O)=O [Compound C24]	10	3	7	6	10	–	–	–	–	–	–	–	–	–
CCC1c2nccnc2C(O)=C(c2c(Cl)cccc2C(F)(F)F)S1(=O)=O (stereo not shown) [Compound E1, 7-(2-chloro-6-trifluoromethyl-phenyl)-5-ethyl-6,6-dioxo-5,6-dihydro-6-thia-1,4-diaza-naphthalen-8-ol]	9	7	7	9	8	–	–	–	–	–	–	–	–	–
C#CCC1c2nccnc2C(O)=C(c2c(F)ccc(Br)c2Cl)S1(=O)=O (stereo not shown) [Compound E8]	–	–	–	–	–	8	6	9	6	–	–	–	–	–
O=S1(=O)C(c2c(F)ccc(Br)c2Cl)=C(O)c2nccnc2C1CC(F)F (stereo not shown) [Compound E9]	10	8	3	9	5	–	–	–	–	–	–	–	–	–
CCC1c2nccnc2C(O)=C(c2c(F)ccc(Br)c2Cl)S1(=O)=O (stereo not shown) [Compound E10]	–	–	–	–	–	–	–	–	–	7	8	4	7	7
CC1c2nccnc2C(O)=C(c2c(F)ccc(Br)c2Cl)S1(=O)=O (stereo not shown) [Compound E11]	8	9	8	10	8	–	–	–	–	–	–	–	–	–
CCC1c2nccnc2C(O)=C(c2ccc(Br)cc2C(F)(F)F)S1(=O)=O (stereo not shown) [Compound E14]	9	7	7	10	6	–	–	–	–	–	–	–	–	–
C#CCC1c2nccnc2C(O)=C(c2c(C)cc(C)cc2C)S1(=O)=O (stereo not shown) [Compound E16]	5	5	2	8	2	–	–	–	–	–	–	–	–	–
Cc1cc(C)c(C2=C(O)c3nccnc3C(CC(F)F)S2(=O)=O)c(C)c1 (stereo not shown) [Compound E17]	10	7	10	7	10	–	–	–	–	–	–	–	–	–
Cc1cc(C)c(C2=C(O)c3nccnc3C(C)S2(=O)=O)c(C)c1 (stereo not shown) [Compound E19]	3	7	5	8	5	–	–	–	–	–	–	–	–	–
C=CCC1c2nccnc2C(O)=C(c2c(F)ccc(Br)c2Cl)S1(=O)=O (stereo not shown) [Compound E20]	–	–	–	–	–	7	2	7	4	–	–	–	–	–
CC#CCC1c2nccnc2C(O)=C(c2c(F)ccc(Br)c2Cl)S1(=O)=O (stereo not shown) [Compound E21]	6	8	7	9	4	–	–	–	–	–	–	–	–	–
O=S1(=O)C(c2c(F)ccc(Br)c2Cl)=C(O)c2nccnc2C1Cc1ccccc1 (stereo not shown) [Compound E23]	6	6	8	8	4	–	–	–	–	–	–	–	–	–
O=S1(=O)C(c2c(F)ccc(Br)c2Cl)=C(O)c2nccnc2C1Cc1ccc(Cl)s1 (stereo not shown) [Compound E24]	6	5	0	7	0	–	–	–	–	–	–	–	–	–
Cc1cc(C)c(C2=C(O)c3nccnc3C(C)(C)S2(=O)=O)c(C)c1 [Compound F1, 5,5-dimethyl-6,6-dioxo-7-(2,4,6-trimethyl-phenyl)-5,6-dihydro-6-thia-1,4-diaza-naphthalen-8-ol]	10	8	8	10	8	–	–	–	–	–	–	–	–	–
CC1(C)c2nccnc2C(O)=C(c2c(F)ccc(Br)c2Cl)S1(=O)=O [Compound F2]	10	9	8	10	9	–	–	–	–	–	–	–	–	–
O=S1(=O)C(c2c(Cl)cccc2C(F)(F)F)=C(O)c2nccnc2C12CC2 [Compound F4]	9	7	6	9	8	–	–	–	–	–	–	–	–	–
CC1(C)c2nccnc2C(O)=C(c2cc(Cl)ccc2C(F)(F)F)S1(=O)=O [Compound F5]	10	9	8	10	6	–	–	–	–	–	–	–	–	–
CC1(C)c2nccnc2C(O)=C(c2ccc(Br)cc2C(F)(F)F)S1(=O)=O [Compound F6]	–	–	–	–	–	–	–	–	–	9	8	9	9	8
O=S1(=O)C(c2c(F)ccc(Br)c2Cl)=C(O)c2nccnc2C12CCC2 [Compound F7]	4	6	1	5	1	–	–	–	–	–	–	–	–	–
CC1(C)c2nccnc2C(O)=C(c2c(Cl)cccc2C(F)(F)F)S1(=O)=O [Compound F9]	9	9	8	8	8	–	–	–	–	–	–	–	–	–
O=S1(=O)C(c2cc(Cl)ccc2C(F)(F)F)=C(O)c2nccnc2C12CC2 [Compound F11, 7-(5-chloro-2-trifluoromethyl-phenyl)-5,5-cyclopropyl-6,6-dioxo-5,6-dihydro-6-thia-1,4-diaza-naphthalen-8-ol]	6	7	3	7	2	–	–	–	–	–	–	–	–	–
CCOCOC1=C(c2cc(Cl)ccc2C(F)(F)F)S(=O)(=O)Cc2nccnc21 [Compound X1, 7-(5-chloro-2-trifluoromethyl-phenyl)-8-ethoxymethoxy-5H-6-thia-1,4-diaza-naphthalene 6,6-dioxide]	6	7	2	8	6	–	–	–	–	–	–	–	–	–
CC(C)C(=O)OC1=C(c2c(F)ccc(Br)c2Cl)S(=O)(=O)Cc2nccnc21 [Compound X2, isobutyric acid 7-(3-bromo-2-chloro-6-fluoro-phenyl)-6,6-dioxo-5,6-dihydro-6-thia-1,4-diaza-naphthalen-8-yl ester]	10	8	8	10	8	–	–	–	–	–	–	–	–	–
